Where only a bound is given, the exact number is not on record here.

The values that follow come from patent EP2042492A1, “Novel Iminooxazole and Iminothiazole Compounds” (Bayer CropScience AG, priority 2007, dated 2009).

Series [1] can be described thus: LogP via HPLC according to EEC directive 79/831 Annex V.A8 (gradient method, acetonitrile / 0,1 % aqueous formic acid). The class given is physicochemical. To be noted: read-out: lgP (HCOOH). As to the method:
Step 2: A stirred mixture of 58 mg (0,24 mmol) of 1-[(1S)-1-(4-fluorophenyl)ethyl]-3-(2-hydroxyethyl)thiourea (preparation step 1) and 27 mg (0,29 mmol) of 1-chloro-propan-2-one in ethanol was refluxed for 18 hours. The solvent was evaporated under reduced pressure and the residue was heated to 70 °C with 25 % aqueous NH4OH solution. This aqueous solution was cooled to ambient temperature and extracted twice with dichloromethane. The organic layer was separated, dried with sodium sulfate and filtered off. The solvent was evaporated under reduced pressure. The residue was purified by chromatography (silica gel; cyclohexane/ethyl acetate = vol. 2:1) to afford 42 mg of 2-[(2E)-2-{[(1S)-1-(4-fluorophenyl)ethyl]imino}-4-methyl-1,3-thiazol-3(2H)-yl]ethanol. Yield: 42 mg (62,3 % of theory). logP (HCOOH) = 0,89 LogP values according EEC directive 79/831 Annex V.A8 via HPLC (gradient method, acetonitrile / 0,1 % aqueous formic acid).

Another series concerns Myzus persicae. The series can be described thus: Myzus persicae - test (MYZUPE spray application). The format is in vivo. To be noted: application rate of 500g/ha, spray on Chinese cabbage leaf-disks infected with all instars of green peach aphid, 100% = all aphids killed. The protocol:
Myzus persicae - test; (MYZUPE spray application)
Chinese cabbage (Brassica pekinesis) leaf-disks infected with all instars of the green peach aphid (Myzus persicae), are sprayed with a preparation of the active ingredient at the desired concentration.
After the specified period of time, mortality in % is determined. 100% means that all aphids have been killed; 0% means that none of the aphids have been killed.

The subject of the next series is Tetranychus urticae. The series can be described thus: Tetranychus urticae - test; OP-resistant (TETRUR spray application). The class given is in vivo. The conditions noted are these: application rate of 500g/ha, spray on French beans infested with all stages of two spotted spidermite, 100% = all spider mites killed. As to the method: Tetranychus urticae - test; OP-resistant (TETRUR spray application)
(§1) To produce a suitable preparation of active compound, 1 part by weight of active compound is mixed with the stated amount of solvent and emulsifier, and the concentrate is diluted with emulsifier-containing water to the desired concentration.
French beans (Phaseolus vulgaris) which are heavily infested with all stages of the two spotted spidermite (Tetranychus urticae), are sprayed with a preparation of the active ingredient at the desired concentration.
After the specified period of time, mortality in % is determined. 100% means that all spider mites have been killed and 0% means that none of the spider mites have been killed.

Another series deals with Phaedon cochleariae. The series can be described thus: Phaedon cochleariae - test (PHAECO spray application). The class given is in vivo. The conditions noted are these: application rate of 500g/ha, sprayed Chinese cabbage leaf-disks infested with mustard beetle larvae, 100 % = all beetle larvae killed. The protocol: Phaedon cochleariae - test; (PHAECO spray application)
as §1
Chinese cabbage (Brassica pekinesis) leaf-disks are sprayed with a preparation of the active ingredient of the desired concentration. Once dry, the leaf disks are infested with mustard beetle larvae (Phaedon cochleariae).
After the specified period of time, mortality in % is determined. 100 % means that all beetle larvae have been killed and 0 % means that none of the beetle larvae have been killed.

In general, mortality refers to the share of the test organisms that died. Low readings indicate a weak lethal effect, high ones a strong lethal effect. `C[C@H](N=c1scc(C2CCCC2)n1CCO)c1ccc(Cl)cc1` [Example 2-293]: the chromatographic logP in series [1] is 1.42. Also, in the series on Myzus persicae, the mortality at 500 g/ha is no less than 80%. In the same order, the values of `CCc1csc(=N[C@@H](CC)c2ccccc2)n1CCO` [Example 2-363] are 1.09 and no less than 80%. The like results for `Cc1csc(=N[C@@H](C)c2ccccc2)n1CCO` [Example 2-17] were, in that order, 0.85 and no less than 80%. In the case of `COc1ccc([C@H](C)N=c2scc(C3CC3)n2CCO)cc1` [Example 2-277], the chromatographic logP in series [1] came out at 1.05. Same read-out and setting: under `COc1ccc([C@H](C)N=c2scc(C)n2CCO)cc1` [Example 2-272] stands 0.89. As to `C[C@H](N=c1scc(-c2cccnc2)n1CCO)c1ccccc1` [Example 2-27], in series [1], the chromatographic logP was 0.85. Further, the mortality at 500 g/ha in the series on Myzus persicae was no less than 80%.

Take `Cc1csc(=N[C@@H](C)c2ccc(Cl)cc2)n1CCO` [Example 2-287]: the mortality at 500 g/ha with Tetranychus urticae and in the series with Myzus persicae was no less than 80% throughout. Besides, the chromatographic logP in series [1] amounted to 1.03.

Take `C[C@H](N=c1scc(-c2ccccc2)n1CCO)c1ccccc1` [Example 2-25]: the chromatographic logP in series [1] worked out at 1.19. The compound also came in with a mortality at 500 g/ha with Myzus persicae of no less than 80%.

For `C[C@H](N=c1scc(C2CCCC2)n1CCO)c1ccccc1` [Example 2-23], the chromatographic logP in series [1] was 1.26. For the same compound, the mortality at 500 g/ha in the series on Myzus persicae is no less than 80%. The like results for `C[C@H](N=c1scc(-c2cccnc2)n1CCO)c1ccc(F)cc1` [Example 2-162] were, in that order, 0.9 and no less than 80%. Take `C[C@H](N=c1scc(C2(Cl)CC2)n1CCO)c1ccc(F)cc1` [Example 2-164]: the chromatographic logP in series [1] was 1.14. Further, the mortality at 500 g/ha in the series on Myzus persicae is no less than 80%.

In the case of `CC[C@H](N=c1scc(C(C)C)n1CCO)c1ccccc1` [Example 2-364], the chromatographic logP in series [1] came to 1.19. In addition, in the series with Myzus persicae, the mortality at 500 g/ha was no less than 80%. For `CC[C@H](N=c1scc(-c2cccnc2)n1CCO)c1ccccc1` [Example 2-372], the chromatographic logP in series [1] came out at 1. The mortality at 500 g/ha in the series with Myzus persicae is no less than 80%. `CC[C@H](N=c1scc(-c2ccccc2)n1CCO)c1ccccc1` [Example 2-370]: the chromatographic logP in series [1] turned out to be 1.33. In addition, the mortality at 500 g/ha with Myzus persicae was no less than 80%.

Take `C[C@H](N=c1scc(C2CCCC2)n1CCO)c1ccc(F)cc1` [Example 2-158]: in series [1], the chromatographic logP was found to be 1.31. Besides, the mortality at 500 g/ha with Myzus persicae was no less than 80%. The like results for `C[C@H](N=c1scc(C2(Cl)CC2)n1CCO)c1ccc(Cl)cc1` [Example 2-299] were, in that order, 1.33 and no less than 80%. In the case of `CCc1csc(=N[C@@H](C)c2ccc(Cl)cc2)n1CCO` [Example 2-288], the mortality at 500 g/ha with Tetranychus urticae and with Myzus persicae was no less than 80% each time. Also, the chromatographic logP in series [1] is 1.14. Take `CC(C)c1csc(=N[C@@H](C)c2ccccc2)n1CCO` [Example 2-19]: the chromatographic logP in series [1] amounted to 1.07. The compound also had a mortality at 500 g/ha in the series with Myzus persicae of no less than 80%. As for `C[C@H](N=c1scc(C2(Cl)CC2)n1CCO)c1ccccc1` [Example 2-29], in series [1], the chromatographic logP came to 1.12. In the series with Myzus persicae, this compound gave a mortality at 500 g/ha of no less than 80%. The like results for `CC[C@H](N=c1scc(C2CCCC2)n1CCO)c1ccccc1` [Example 2-368] were, in that order, 1.4 and no less than 80%. In the same order, the values of `C[C@H](N=c1scc(-c2ccccc2)n1CCO)c1ccc(F)cc1` [Example 2-160] are 1.26 and no less than 80%. `COc1ccc([C@H](C)N=c2scc(C3CCCC3)n2CCO)cc1` [Example 2-278]: the chromatographic logP in series [1] came to 1.33. In the case of `CCc1csc(=N[C@@H](C)c2ccc(F)cc2)n1CCO` [Example 2-153], the chromatographic logP in series [1] stood at 1. Moreover, the mortality at 500 g/ha in the series on Phaedon cochleariae and in the series on Myzus persicae was no less than 80% in each case.

As to `CCc1csc(=N[C@@H](C)c2ccc(OC)cc2)n1CCO` [Example 2-273], the chromatographic logP in series [1] was 1. As for `C[C@H](N=c1scc(C2CC2)n1CCO)c1ccccc1` [Example 2-22], the chromatographic logP in series [1] turned out to be 1.01. In the series with Myzus persicae, this compound had a mortality at 500 g/ha of no less than 80%. As for `C[C@H](N=c1scc(-c2cccnc2)n1CCO)c1ccc(Cl)cc1` [Example 2-297], the chromatographic logP in series [1] was 1.03. In the series with Myzus persicae, this compound showed a mortality at 500 g/ha of no less than 80%. The like results for `CC[C@H](N=c1scc(C)n1CCO)c1ccccc1` [Example 2-362] were, in that order, 0.98 and no less than 80%. In the same order, the values of `Cc1cs/c(=N/[C@@H](C)c2ccc(F)cc2)n1CCO` [Example 2-152, 2-[(2E)-2-{[(1S)-1-(4-fluorophenyl)ethyl]imino}-4-methyl-1,3-thiazol-3(2H)-yl]ethanol] are 0.89 and no less than 80%. In the same order, the values of `C[C@H](N=c1scc(-c2ccccc2)n1CCO)c1ccc(Cl)cc1` [Example 2-295] are 1.38 and no less than 80%. On to `COc1ccc([C@H](C)N=c2scc(-c3cccnc3)n2CCO)cc1` [Example 2-282], for which the chromatographic logP in series [1] stood at 0.9.

Turning to `C[C@H](N=c1scc(C2CC2)n1CCO)c1ccc(F)cc1` [Example 2-157], the chromatographic logP in series [1] turned out to be 1.03. The compound further registered a mortality at 500 g/ha in the series on Myzus persicae of no less than 80%.

As to `COc1ccc([C@H](C)N=c2scc(-c3ccccc3)n2CCO)cc1` [Example 2-280], the chromatographic logP in series [1] worked out at 1.26. With `COc1ccc([C@H](C)N=c2scc(C(C)C)n2CCO)cc1` [Example 2-274], the chromatographic logP in series [1] was determined as 1.09. In the case of `CCc1csc(=N[C@@H](C)c2ccccc2)n1CCO` [Example 2-18], the chromatographic logP in series [1] was found to be 0.96. The mortality at 500 g/ha with Myzus persicae was no less than 80%. As to `CC(C)c1csc(=N[C@@H](C)c2ccc(Cl)cc2)n1CCO` [Example 2-289], the chromatographic logP in series [1] is 1.28. The same compound yielded a mortality at 500 g/ha in the series on Myzus persicae of no less than 80%.

Take `COc1ccc([C@H](C)N=c2scc(C3(Cl)CC3)n2CCO)cc1` [Example 2-284]: the chromatographic logP in series [1] came out at 1.14.

With `Cc1sc(=N[C@@H](C)c2ccccc2)n(CCO)c1C` [Example 2-21], in series [1], the chromatographic logP turned out to be 1.13. The compound also displayed a mortality at 500 g/ha in the series with Myzus persicae of no less than 80%.

Regarding `CC[C@H](N=c1scc(C2CC2)n1CCO)c1ccccc1` [Example 2-367], the chromatographic logP in series [1] is 1.14. The compound further had a mortality at 500 g/ha in the series with Myzus persicae of no less than 80%. On to `CC(C)c1csc(=N[C@@H](C)c2ccc(F)cc2)n1CCO` [Example 2-154], for which the chromatographic logP in series [1] amounted to 1.12. In the series with Myzus persicae, this compound displayed a mortality at 500 g/ha of no less than 80%. Take `CC[C@H](N=c1scc(C2(Cl)CC2)n1CCO)c1ccccc1` [Example 2-374]: in series [1], the chromatographic logP came to 1.19. Further, the mortality at 500 g/ha with Myzus persicae is no less than 80%.
